Assay [1] has as its system L1210. The experiment in a line: Antimitotic activity in mouse L1210 cells assessed as increase in mitotic index at 2 to 7 times IC50 after 6 hrs relative to control. Type of assay: functional.
Assay [2] is described as follows: Inhibition of microtubule assembly after 15 mins.
Assay [3] can be described thus: Displacement of [3H]colchicine from tubulin at inhibitor and colchicine ratio 100:1 after 10 mins relative to control. The settings on record: values are per cent of control.
The nature of assay [4]: Displacement of [3H]colchicine from tubulin at inhibitor and colchicine ratio 10:1 after 10 mins relative to control. The settings on record: values are per cent of control. Also noted: concentration or dose not given beside the values.
Assay [5] in a line: Displacement of [3H]colchicine from tubulin at inhibitor and colchicine ratio 1:1 after 10 mins relative to control. Also noted: concentration or dose not given beside the values. The settings on record: values are per cent of control.
For assay [6], the system named is L1210. As to the kind of experiment: Cytotoxicity against mouse L1210 cells after 24 hrs. Format: functional, cell-based. As to conditions: L1210, 24 h.
In a further assay the test system is P388. The experiment in a line: Cytotoxicity against mouse P388 cells. Type of assay: functional.

Bounds are passed on as bounds.

Regarding `COc1ccc(CCc2cc(OC)c(OC)c(OC)c2)cc1OC`, the Activity in the assay on L1210 [1] was found to be 25%. The IC50 is > 100 µM in assay [2] and 20 µM in the assay on L1210 [6]. Further, the residual binding, % of control in assay [3] was found to be 37%; in assay [4], 63%; in assay [5], 88%.
With `COc1cc([C@@H]2c3cc4c(cc3[C@H](O)[C@H]3COC(=O)[C@H]23)OCO4)cc(OC)c1OC` [PODOFILOX], the IC50 in assay [2] turned out to be 4 µM. Further, the residual binding, % of control came to 0% in assay [4] and 11% in assay [5].
As for `COc1cc(CCc2ccc(OC)c(O)c2)cc(OC)c1`, in the assay on L1210 [1], the Activity worked out at 25%. Also, the IC50 turned out to be 30 µM in assay [2] and 1 µM in the assay on L1210 [6]. Also, the residual binding, % of control in assay [3] was 3%; in assay [4], 8%; in assay [5] it was 38%. This compound came in with an ED50 in the assay on P388 of 1.7 Ug/ml.
For `COc1cc(CCc2ccc(O)cc2)cc(OC)c1OC`, in the assay with L1210 [1], the Activity is 25%. Moreover, the values for the IC50 (in assay [2]; in the assay on L1210 [6]) were > 100 µM and 50 µM, respectively. Further, the residual binding, % of control in assay [3] amounted to 43%; in assay [4] it was 77%; in assay [5], 89%. The same compound gave an ED50 with P388 of 0.25 Ug/ml.
`COc1cc(CCc2ccc(O)c(O)c2)cc(OC)c1`: the Activity in the assay with L1210 [1] came out at 25%. The results for the half-inhibitory concentration (IC50) (in assay [2]; in the assay with L1210 [6]) were > 100 µM and 1 µM, respectively. In addition, the residual binding, % of control turned out to be 10% in assay [3], 31% in assay [4] and 75% in assay [5]. In the assay with P388, this compound had an ED50 of 1.7 Ug/ml.
Take `COc1cc(CCc2ccc(OC)c(OC)c2)cc(OC)c1`: the Activity in the assay with L1210 [1] was 56%. Also, the values for the IC50 (in assay [2]; in the assay on L1210 [6]) were > 100 µM and 30 µM, respectively. Further, the values for the residual binding, % of control in assay [3], in assay [4] and in assay [5] were 34%, 80% and 90%, respectively.
Take `COc1ccc(CCc2cc(OC)c(OC)c(OC)c2)c(O)c1O`: in the assay on L1210 [1], the Activity came to 25%. In addition, the IC50 in assay [2] was determined as 4 µM; in the assay with L1210 [6], 2 µM. Moreover, the residual binding, % of control in assay [4] turned out to be 0%; in assay [5], 13%.
As for `COc1cc(CCc2ccc(O)c(O)c2)cc(OC)c1OC`, the Activity in the assay with L1210 [1] came to 25%. Also, the IC50 was > 100 µM in assay [2] and 3 µM with L1210 [6]. Also, the figures for the residual binding, % of control in assay [3], in assay [4] and in assay [5] were 48%, 81% and 92%, respectively. In the assay with P388, this compound came in with an ED50 of 0.4 Ug/ml.
Regarding `COc1ccc(/C=C\c2cc(OC)c(OC)c(OC)c2)c(O)c1O` [COMBRETASTATIN A-1], the Activity in the assay with L1210 [1] worked out at 25%. Also, the IC50 in assay [2] was determined as 4 µM; in the assay on L1210 [6], 0.6 µM. The figures for the residual binding, % of control in assay [4] and in assay [5] were 0% and 3%, respectively.

The values above are taken from ChEMBL document CHEMBL1150757, “Isolation, structure, synthesis, and antimitotic properties of combretastatins B-3 and B-4 from Combretum caffrum” (J Nat Prod, 1988).
